# Source: patent US11541132B2, “Radiolabeled compounds” (Hoffmann-La Roche Inc., priority 2017, dated 2023)
# Key:
# [1] = target: native Aβ aggregates in human AD brain sections (Homo sapiens, UniProt P05067); experiment: Aβ in vitro binding assay (autoradiography); details: human AD cortical tissue section, 3 nM (FIG. 8)
# Protocol: Ten μm thick A30P transgenic mouse brain sections and human PD brain sections are generated with a cryostat (Leica CM3050) at −17° C. chamber temperature and −15° C. object temperature. Sections are transferred to Histobond+ microscope slides (Marienfeld Laboratory Glasware). After drying for 3 hours at room temperature the sections are stored at −20° C. The sections are incubated with the radioligand (0.3-30 nM) and the respective cold compound (at various concentrations) in 50 mM Tris buffer, pH 7.4 at room temperature for 30 min. After washing 3×10 min at 4° C. in 50 mM Tris buffer, pH 7.4 and 3 quick dips in H2O dist. at 4° C. the sections are dried at 4° C. for 3 h. The sections are placed in a FujiFilm Cassette, exposed to an Imaging Plate (BAS-IP TR 2025) for five days and afterwards scanned with a FujiFilm IP reader (BAS-5000) with a resolution of 25 μM per pixel.
# This direct in vitro binding assay assesses the affinity of radiotracers for native Aβ aggregates in tissue sections by autoradiography.
# [2] = target: T1, aSyn aggregates in A30P transgenic mouse brain tissue (Homo sapiens, UniProt P37840, A30P); experiment: aSyn in vitro binding assay (autoradiography of tritiated compounds); parameters: species or system mutant human aSyn gene)
# T1 construct: from tissue; host or cells: brain sections (midbrain and pons as ROI) of A30P transgenic mice, line B6.D2-Tg(Thy1-SNCA*30P)31Pjk
# Protocol: (§1) Ten μm thick A30P transgenic mouse brain sections and human PD brain sections are generated with a cryostat (Leica CM3050) at −17° C. chamber temperature and −15° C. object temperature. Sections are transferred to Histobond+ microscope slides (Marienfeld Laboratory Glasware). After drying for 3 hours at room temperature the sections are stored at −20° C. The sections are incubated with the radioligand (0.3-30 nM) and the respective cold compound (at various concentrations) in 50 mM Tris buffer, pH 7.4 at room temperature for 30 min. After washing 3×10 min at 4° C. in 50 mM Tris buffer, pH 7.4 and 3 quick dips in H2O dist. at 4° C. the sections are dried at 4° C. for 3 h. The sections are placed in a FujiFilm Cassette, exposed to an Imaging Plate (BAS-IP TR 2025) for five days and afterwards scanned with a FujiFilm IP reader (BAS-5000) with a resolution of […] per pixel.
# Antibody staining of sections is performed after exposure and scanning of the tissue sections undergoing classical autoradiographical analysis. Brain sections were hydrated in PBS and blocked in 1% bovine serum albumin, 1% ovalbumin and 1% normal goat serum in PSB for 20 min. This is followed by overnight incubation at 4° C. with a mixture of anti-aSyn pS129 monoclonal antibody (generated in-house; 1 μg/mL) in blocking buffer. […]
# [3] = target: T2, aSyn aggregates (LBs) in human PD brain tissue (Homo sapiens, UniProt P37840); experiment: aSyn in vitro binding assay on human PD tissue sections; details: higher magnification
# T2 construct: tissue Banner Sun Health Research Institute; host or cells: human PD brain (cortical) tissue sections
# Protocol: Human PD brain tissue blocks were obtained from the Banner Sun Health Research Institute (Sun City, Ariz., USA). Pathological diagnosis of PD was made according to standard criteria based on neuropathological data.
# as §1
# Antibody staining of sections is performed after exposure and scanning of the tissue sections undergoing classical autoradiographical analysis. Brain sections were hydrated in PBS and blocked in 1% bovine serum albumin, 1% ovalbumin and 1% normal goat serum in PSB for 20 min. […]
# native Aβ aggregates in human AD brain sections, sequence (P05067 672-713 limits assumed): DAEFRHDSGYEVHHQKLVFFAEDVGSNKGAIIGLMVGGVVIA
SMILES,co-localization of radioligand binding and Aβ mAb staining [1],co-localization of radioligand binding and aSyn antibody pS129 staining ([2]; A30P transgenic mouse brain sections),"binding to aSyn aggregates in A30P transgenic mouse brain tissue ([2]; radioligand 3 nM (FIG. 1), midbrain and pons)",co-localization of autoradiogram hot spots with LBs stained by aSyn mAb pS129 [3]
"[3H]C([3H])(F)Oc1ccc(C(=O)Nc2ccc(N3CCN(c4cccnc4)CC3)cc2)cc1 [[^3H]Example-134, [^3H]4-(Fluoromethoxy)-N-(4-(4-(pyridin-3-yl)piperazin-1-yl)phenyl)benzamide]",excellent co-localization,–,–,–
"[3H]C([3H])([3H])Oc1ccc(C(=O)Nc2ccc(N3CCN(c4ccccn4)CC3)cc2)cc1 [[^3H]Example-3, 4-[^3H3] Methoxy-N-[4-(4-pyridin-2-ylpiperazin-1-yl)phenyl]benzamide]",–,excellent co-localization,strong binding,good co-localization
